Measurements taken from patent publication US20170073337A1, “DIHYDROTHIAZINE AND DIHYDROOXAZINE DERIVATIVES HAVING BACE1 INHIBITORY ACTIVITY” (Shionogi & Co., Ltd., priority 2014, published 2017).

Columns and labels:
[1] = Pharmacokinetic study (oral absorption); type: in vivo; conditions: bioavailability from AUCs of oral and intravenous administration; mouse or rat
Protocol: (1l) Animal: mouse or rat (2) Breeding conditions: mouse or rat was allowed free access to the tap water and the solid food. (3) Dose and grouping: orally or intravenously administered at a predetermined dose: grouping was as follows (Dose depends on the compound) Oral administration: 1 to 30 mg/kg (n=2 to 3) Intravenous administration: 0.5 to 10 mg/kg (n=2 to 3) (4) Dosing formulation: for oral administration, in a solution or a suspension state; for intravenous administration, in a solubilized state (5) Dosing method: in oral administration, forcedly administer using a syringe attached a flexible feeding tube; in intravenous administration, administer from caudal vein using a syringe attached with a needle. (6) Evaluation items: blood was collected at the scheduled time, and the plasma concentration of the compound of the present invention was measured by LC/MS/MS (7) Statistical analysis: regarding the transition of the plasma concentration of the compound of the present invention, the area under the plasma concentration-time curve (AUC) was calculated by non-linear least squares program WinNonlin (Registered trademark), and the bioavailability (BA) of the compound of the present invention was calculated from the AUCs of the oral administration group and intravenous administration group

[2] = Brain distribution studies; type: in vivo; conditions: rat, 30 minutes later, area ratio brain/plasma; for Kp at 0.5 h: brain / plasma, iv, 0.5 mg/mL/kg
Protocol: Compound of the present invention was intravenously administered to a rat at 0.5 mg/mL/kg dosage. 30 minutes later, all blood was drawn from the abdominal aorta under isoflurane anesthesia for death from exsanguination. […] The obtained blood was used as plasma after centrifuging. The control plasma was added to the brain sample at 1:1. The control brain homogenate was added to the plasma sample at 1:1. Each sample was measured using LC/MS/MS. The obtained area ratio (a brain/plasma) was used for the brain Kp value.

P-gp = target: T1, P-gp (Mus musculus, UniProt P21447); assay: P-gp substrate test using mdr1a (−/−) B6 mice; type: in vivo; conditions: Kp in KO mouse (mdr1a (−/−) B6) / Kp in Wild mouse; for Kp at 2 h: mdr1a (−/−) B6 (KO) and C57BL/6J (wild), mouse, brain / plasma, po, 2 mg/kg, read-out: Kp ratio (2 mg/kg, po, 2 hr)
T1 construct: from tissue; host or cells: living mice (brain/plasma distribution), wild type versus mdr1a (−/−)
Protocol: Animal: mdrla (−/−) B6 mice (KO mouse) or […] mice (Wild mouse)
1. Animals may be fed prior to dosing of the compounds of the present invention. 2. The compounds of the present invention were dosed to three animals for each time point and blood and brain samples were removed at selected time points (e.g. 15 min, 30 min, 1 hr, 2 hr, 4 hr, 6 hr, 8 hr, or 24 hr) after dosing. Blood (0.3-0.7 mL) was collected via trunk blood collection with syringe containing anticoagulants (EDTA and heparin). Blood and tissue (e.g. brain) samples were immediately placed on melting ice. 3. Blood samples were centrifuged (1780×g for 10 minutes) for cell removal to obtain plasma. Then, plasma samples were transferred to a clean tube and stored in a −70° C. freezer until analysis. 4. Tissue (e.g. brain) samples were homogenized at a 1:3 ratio of tissue weight to ml of stilled water and transferred to a clean tube and stored in a −70° C. freezer until analysis. 5. Plasma and tissue (e.g. brain) samples were prepared using protein prceipitation and analyzed by LC/MS/MS. The analytical method was calibrated by including a standard curve constructed with blank plasma or brain samples and known quantities of analyte. Quality control samples were included to monitor the accuracy and precision of the methodology. 6. Plasma and brain concentration values (ng/mL and ng/g) were introduced into an appropriate tool used for calculating the pharmacokinetic parameters. A common platform was the WinNonlin (Registered trademark) pharmacokinetic software modeling program.
Kp: Tissue to Plasma concentration ratio Kp ratio=Kp in KO mouse/Kp in Wild mouse KO/Wild ratio of AUC Tissue/AUC Plasma ={AUC Tissue/AUC Plasma (KO mouse)}/{AUC Tissue/AUC Plasma (Wild mouse)}

Recombinant human BACE1 = target: T2, Recombinant human BACE1 (Homo sapiens, UniProt P56817); assay: Assay of BACE1 inhibitory activity: 384-well; type: biochemical; conditions: Assay format 384-well
T2 construct: purchased R&D Systems
In short: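 Recombinant human BACE1 was incubated 2 h at 25 °C with a biotin/Eu-cryptate-labelled peptide substrate and compound in DMSO. Streptavidin-XL665 in pH 7.0 phosphate buffer containing 0.8 mol/L KF was then added for 30 min at 25 °C for HTRF detection.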

T1 sequence (P21447 whole entry): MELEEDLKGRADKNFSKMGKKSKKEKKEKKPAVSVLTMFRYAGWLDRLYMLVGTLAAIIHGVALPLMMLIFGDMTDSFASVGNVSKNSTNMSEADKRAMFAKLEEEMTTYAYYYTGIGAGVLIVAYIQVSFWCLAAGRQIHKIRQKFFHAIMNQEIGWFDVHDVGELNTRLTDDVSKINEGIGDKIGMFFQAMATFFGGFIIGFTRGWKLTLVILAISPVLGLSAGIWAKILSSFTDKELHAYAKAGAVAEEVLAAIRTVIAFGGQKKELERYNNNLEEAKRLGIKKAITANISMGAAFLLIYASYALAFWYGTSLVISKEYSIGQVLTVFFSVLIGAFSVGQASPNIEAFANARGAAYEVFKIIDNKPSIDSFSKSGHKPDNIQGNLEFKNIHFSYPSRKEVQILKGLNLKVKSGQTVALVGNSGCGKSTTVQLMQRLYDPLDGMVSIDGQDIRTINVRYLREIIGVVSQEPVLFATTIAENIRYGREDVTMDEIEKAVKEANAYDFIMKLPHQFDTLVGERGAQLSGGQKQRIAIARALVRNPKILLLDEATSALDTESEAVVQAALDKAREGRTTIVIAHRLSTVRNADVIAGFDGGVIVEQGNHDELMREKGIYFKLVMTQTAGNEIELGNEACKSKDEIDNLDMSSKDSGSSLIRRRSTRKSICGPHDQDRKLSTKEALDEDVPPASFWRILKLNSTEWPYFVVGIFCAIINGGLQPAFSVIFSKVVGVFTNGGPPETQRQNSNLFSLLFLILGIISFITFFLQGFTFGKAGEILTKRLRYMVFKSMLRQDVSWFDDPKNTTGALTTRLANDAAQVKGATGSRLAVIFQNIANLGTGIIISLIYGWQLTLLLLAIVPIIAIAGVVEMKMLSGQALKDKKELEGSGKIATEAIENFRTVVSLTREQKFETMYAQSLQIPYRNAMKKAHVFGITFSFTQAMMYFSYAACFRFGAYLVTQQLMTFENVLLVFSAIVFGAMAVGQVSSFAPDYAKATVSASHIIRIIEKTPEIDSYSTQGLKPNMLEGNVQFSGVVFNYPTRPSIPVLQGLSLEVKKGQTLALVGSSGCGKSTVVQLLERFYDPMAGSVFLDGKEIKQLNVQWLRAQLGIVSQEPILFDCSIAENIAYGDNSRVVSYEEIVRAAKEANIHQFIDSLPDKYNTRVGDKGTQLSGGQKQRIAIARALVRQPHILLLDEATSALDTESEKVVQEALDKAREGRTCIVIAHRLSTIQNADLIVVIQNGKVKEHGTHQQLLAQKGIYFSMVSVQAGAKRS
T2 sequence (P56817 46-501): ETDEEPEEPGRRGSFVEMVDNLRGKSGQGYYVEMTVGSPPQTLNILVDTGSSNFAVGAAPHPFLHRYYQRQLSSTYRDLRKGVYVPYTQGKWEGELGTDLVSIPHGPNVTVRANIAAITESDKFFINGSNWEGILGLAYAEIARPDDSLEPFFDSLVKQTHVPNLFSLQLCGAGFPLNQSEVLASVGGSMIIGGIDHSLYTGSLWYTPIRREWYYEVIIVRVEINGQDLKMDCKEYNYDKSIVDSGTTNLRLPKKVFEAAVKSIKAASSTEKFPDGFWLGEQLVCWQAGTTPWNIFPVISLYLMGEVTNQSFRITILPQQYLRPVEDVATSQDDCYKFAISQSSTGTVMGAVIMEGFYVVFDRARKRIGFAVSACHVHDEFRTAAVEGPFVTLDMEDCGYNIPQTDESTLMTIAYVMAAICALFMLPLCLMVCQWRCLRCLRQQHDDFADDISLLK

BA_% [1]	Kp at 0.5 h [2]	Kp at 2 h (P-gp)	IC50 (Recombinant human BACE1)	Kp Brain ([2]; intravenous 0.5 mg/mL/kg)	Kp ratio (2 mg/kg, po, 2 hr) (P-gp)	SMILES
27.4%	1.8	2.22	–	–	–	COc1cnc(C(=O)Nc2ccc(F)c([C@@]3(C)N=C(N)S[C@H](C)[C@@H]3F)c2)cn1 [Compound I-8]
36.2%	0.74	6.97	21.1 nM	–	–	CC(F)(F)[C@H]1OC(N)=N[C@](C)(c2cc(NC(=O)c3ccc(C#N)cn3)ccc2F)[C@H]1F [Compound I-40]
22.2%	1.9	6.13	23.6 nM	–	–	C[C@H]1SC(N)=N[C@](C)(c2cc(NC(=O)c3cnc(OCC(F)(F)F)cn3)ccc2F)[C@H]1F [Compound I-46]
83.2%	2	2.92	–	–	–	C[C@]1(c2nc(NC(=O)c3ccc(C#N)cn3)ccc2F)N=C(N)S[C@H](CF)[C@@H]1F [Compound I-4]
28.7%	2	2.07	14.7 nM	–	–	COc1cnc(C(=O)Nc2ccc(F)c([C@@]3(C)N=C(N)O[C@H](C(C)(F)F)[C@@H]3F)c2)cn1 [Compound I-42]
38.8%	2.3	5.16	–	–	–	C[C@H]1SC(N)=N[C@](C)(c2nc(NC(=O)c3cnc(OCF)cn3)ccc2F)[C@H]1F [Compound I-3]
51.3%	2.9	0.959	–	–	–	C[C@H]1SC(N)=N[C@](C)(c2nc(NC(=O)c3ccc(F)cn3)ccc2F)[C@H]1F [Compound I-2]
35.2%	–	–	14.6 nM	1.9	2.66	C[C@H]1[C@@H](C(F)(F)F)OC(N)=N[C@]1(C)c1cc(NC(=O)c2cnc(OCF)cn2)ccc1F [Compound I-41]
66.7%	2	4.12	–	–	–	C[C@H]1SC(N)=N[C@](C)(c2nc(NC(=O)c3ccc(C#N)cn3)ccc2F)[C@H]1F [Compound I-1]
–	1.1	2.12	4.77 nM	–	–	C[C@H]1SC(N)=N[C@](C)(c2cc(NC(=O)c3cnc(OC(F)F)cn3)ccc2F)[C@H]1F [Compound I-47]
78.7%	1.8	4.54	7.84 nM	–	–	C[C@H]1SC(N)=N[C@](C)(c2cc(NC(=O)c3ccc(F)cn3)ccc2F)[C@H]1F [Compound I-116]
32.8%	2	4.21	–	–	–	C[C@@]1(c2cc(NC(=O)c3ccc(C#N)cn3)ccc2F)C[C@@](C)(C(F)(F)F)OC(N)=N1 [Compound I-7]
